Entries after “also recorded” stand apart in the source; their conditions may differ.
Assays:
HLA alleles of class I = assay: Affinity of epitopes for HLA alleles of class I; type: binding, human; settings: for Affinity for the HLA alleles of class I: H2B-1 epitopes, Table 1
Excerpt: The multiepitopic peptide compounds (24 to 40-mer), having a high affinity with a maximized number of HLA molecules of class I and of class II, such as the affinities for the alleles HLA of class I and HLA of class II of the epitopes in the peptides of the sequences SEQ ID NO: 22, 23, 65, 66, 69, 73, 77, 96, 97, 137, 138, and 157, 185, have a high immunoprevalent potential corresponding to an optimal vaccine coverage, in particular for the populations concerned. The degree of coverage of the peptide compounds of the invention show a very high added value compared with the peptides of the prior art.

[1] = test system: HLA supertypes of class I; assay: Affinity of epitopes for HLA supertypes of class I; type: binding, human; settings: for Affinity for the HLA supertypes of class I: H2B-1 epitopes, Table 1
Excerpt: HLA molecules are highly polymorphous. This is because there exist more than 2500 HLA proteins of class I (HLA-I) and more than 1000 HLA proteins of class II (HLA-II). However, some of these HLA molecules, close in sequence and in spatial conformation, may have epitopes common to the T cells. The grouping of several thousands of HLA molecules is at the present time described in a little more than 20 or so categories, referred to as “HLA supertypes” having epitopes that are very well preserved for each supertype.

[2] = test system: CD4+ T cells of a naive individual (MPL10); assay: IFN-γ ELISPOT with CD4+ T cells and autologous dendritic cells of a naive individual (long protocol, three stimulations); type: cell-based, human
Procedure: The immunogenicity was evaluated, with combinations of peptides (combination corresponding to the “Pool H”) at 1 μM for each peptide, from samplings of blood of naive individuals and according to a long protocol with at least three successive stimulations. An IFN-γ ELISPOT test for measuring the frequency of the pre-existing naive T cells and the amplitude of the specific naive T repertoire for each peptide, was performed with the CD4+ T cells and the autologous dendritic cells of a naive individual in the presence or absence of the mixture of peptides, or in the presence of each peptide individually. […] The “Pool H” combination was used either with peptides not modified at the amino-terminal end and with amidation of the carboxy-terminal end, or with peptides chemically modified by a palmitoyl tail at the amino-terminal end and with amidation of the carboxy-terminal end.
The evaluation of the immunogenicity properties of peptide compounds according to the invention in naive individuals, persons who have never been in contact with the Leishmania parasite, is an important factor in predicting the efficacy of a peptide vaccine (Kwok WW et al, 2012, Frequency of epitope-specific naive CD4(+) T cells correlates with immunodominance in the human memory repertoire; Castelli F A et al, 2007, Differential capacity of T cell priming in naive donors of promiscuous CD4+ T cell epitopes of HCV NS3 and Core proteins). Immunogenicity is evaluated in vitro by measuring the frequency of the pre-existing naive T cells and the amplitude of the naive T repertoire specific for each compound. The evaluation is carried out using blood samples from naive individuals and in accordance with a long protocol (Castelli F A, et al. 2007 as aforementioned) putting purified T lymphocytes in contact with autologous dendritic cells previously incubated with the peptides of the invention. The combination of peptides used is composed of: SEQ ID NO: 23, SEQ ID NO: 66, SEQ ID NO: 73, SEQ ID NO: 77, SEQ ID NO: 97, SEQ ID NO: 138, SEQ ID NO: 157, SEQ ID NO: 185, SEQ ID NO: B11, SEQ ID NO: B12 and SEQ ID NO: B13. The compounds were synthesized chemically without amino-terminal modification and with carboxy-terminal (peptide-NH2) amidation (NH2). After three successive stimulations at intervals of seven days of the CD4+ T cells of a naive individual (MPL10; Établissement français du sang de Toulouse), an IFN-γ ELISPOT was carried out with the cells in the presence or absence of the mixture of peptides, or in the presence of each compound individually. […] Each positive line responds to at least one of the peptides of the present invention. The MPL10-3 line responds to the peptides SEQ ID NO: 73 and SEQ ID NO: 157. The MPL10-4 line responds to the peptides SEQ ID NO: 23, SEQ ID NO: 73, SEQ ID NO: 77, SEQ ID NO: 97, SEQ ID NO: 138 and SEQ ID NO: 157. The MPL10-7 line responds to the peptides SEQ ID NO: 77, SEQ ID NO: 97 and SEQ ID NO: 157. The MPL10-8 line responds to the peptides SEQ ID NO: 66, SEQ ID NO: 73, SEQ ID NO: 97, SEQ ID NO: 138 and SEQ ID NO: 157. The MPL10-10 line responds to the peptides SEQ ID NO: 66, SEQ ID NO: 73, SEQ ID NO: 77, SEQ ID NO: 97, SEQ ID NO: 138, SEQ ID NO: 157 and SEQ ID NO: 185. And the MPL10-12 line responds to the peptides SEQ ID NO: 66, SEQ ID NO: 157 and SEQ ID NO: 185.
The evaluation of the immunogenicity properties of peptide compounds of the invention in the same naive individual (MPL10) but with chemically synthesized compounds with the addition of a palmitoylated tail at the amino-terminal end and with an NH2 group at the carboxy-terminal end (PAL-peptide-NH2) was also performed. The same combination of peptides as before was used. After three stimulations with the mixture of PAL-peptide-NH2 peptides, an IFN-g ELISPOT was carried out with the cells in the presence or absence of the mixture of peptides, or in the presence of each peptide individually. […]

HLA alleles of class II = assay: Affinity of epitopes for HLA alleles of class II; type: binding, human; settings: H2B-1 epitopes, Table 1
[3] = LmLRAB (IA, IB, IC) epitopes, Table 2
[4] = MPL10-PAL-2 line, PAL-peptide-NH2
[5] = MPL10-PAL-3 line, PAL-peptide-NH2

| Sequence | Affinity for the HLA alleles of class I (HLA alleles of class I) | IFN-γ ELISPOT response of specific line to individual peptide ([2]; MPL10-4 line, peptide-NH2) | IFN-γ ELISPOT response of specific line to individual peptide ([2]; MPL10-10 line, peptide-NH2) | IFN-γ ELISPOT response of specific line to individual peptide [2, 5] | further results |
| --- | --- | --- | --- | --- | --- |
| AINAQMSMM (Leishmania major) [SEQ ID NO: 1] | HLA-B*15:01 |  |  |  | Affinity for the HLA supertypes of class I [1]: HLA-B*62 |
| ASFRSTEAI (Leishmania major) [SEQ ID NO: 75] |  |  |  |  | Concatenation affinity for HLA allele of class I (HLA alleles of class I; [3]): HLA-A*32:01,; also recorded: HLA-B*15:03,; also recorded: HLA-B*1517; Affinity for HLA supertypes of class I [1, 3]: HLA-A*01,; also recorded: HLA-B*27,; also recorded: HLA-B*58 |
| IKAINAQMSM (Leishmania major) [SEQ ID NO: 2] | HLA-B*57:01; also recorded: HLA-B*15:01, |  |  |  | Affinity for the HLA supertypes of class I [1]: HLA-B*62; also recorded: HLA-B*58, |
| KAARSARSGEGYFLTDEKTSLVYGDGG (listed as Leishmania infantum) [SEQ ID NO: 157] |  | responds | responds | responds | IFN-γ ELISPOT response of specific line to individual peptide ([2]; MPL10-3 line, peptide-NH2): responds; IFN-γ ELISPOT response of specific line to individual peptide ([2]; MPL10-7 line, peptide-NH2): responds; IFN-γ ELISPOT response of specific line to individual peptide ([2]; MPL10-8 line, peptide-NH2): responds; IFN-γ ELISPOT response of specific line to individual peptide ([2]; MPL10-12 line, peptide-NH2): responds; IFN-γ ELISPOT response of specific line to individual peptide [2, 4]: responds |
| KAINAQMSM (Leishmania major) [SEQ ID NO: 3] | HLA-B*58:01,; also recorded: HLA-B*57:01,; also recorded: HLA-B*15:01,; also recorded: HLA-A*30:01 |  |  |  | Affinity for the HLA alleles of class II (HLA alleles of class II): DRB4*01:01 |
| KAINAQMSMM (Leishmania major) [SEQ ID NO: 4] | HLA-B*58:01,; also recorded: HLA-B*57:01,; also recorded: HLA-B*15:01 |  |  |  | Affinity for the HLA supertypes of class I [1]: HLA-B*58,; also recorded: HLA-B*62 |
| KARYMPHVDQSSIARYASFRSTEAIRYSSIMVVANK (Leishmania major) [SEQ ID NO: 77] |  | responds | responds | responds | IFN-γ ELISPOT response of specific line to individual peptide ([2]; MPL10-7 line, peptide-NH2): responds |
| KARYMSMSHRTMKSMSHRTMKIKAINAQMSMMERICTEAA (Leishmania major) [SEQ ID NO: 23] |  | responds |  | responds |  |
| KARYRFAQGEHDIRLPENAFVIARYTQGSSKAGF (Leishmania major) [SEQ ID NO: 73] |  | responds | responds | responds | IFN-γ ELISPOT response of specific line to individual peptide ([2]; MPL10-3 line, peptide-NH2): responds; IFN-γ ELISPOT response of specific line to individual peptide ([2]; MPL10-8 line, peptide-NH2): responds; IFN-γ ELISPOT response of specific line to individual peptide [2, 4]: responds |
| KEMPSGSDYSHMSIRDLDFSNMGLLLSGT (KEMPSGSDYSHSMIRDLDFSNMGLLLSGT; listed as Leishmania infantum) [SEQ ID NO: 185] |  |  | responds | responds | IFN-γ ELISPOT response of specific line to individual peptide ([2]; MPL10-12 line, peptide-NH2): responds; IFN-γ ELISPOT response of specific line to individual peptide [2, 4]: responds |
| KGRLHSVVGRHLSIVADHMPHLDQ (Leishmania major) [SEQ ID NO: 97] |  | responds | responds | responds | IFN-γ ELISPOT response of specific line to individual peptide ([2]; MPL10-7 line, peptide-NH2): responds; IFN-γ ELISPOT response of specific line to individual peptide ([2]; MPL10-8 line, peptide-NH2): responds |

Source: patent publication US11559575B2, “Multi-epitopic peptide compounds and vaccines against leishmaniasis” (INSTITUT DE RECHERCHE POUR LE DEVELOPPEMENT, priority 2018, dated 2023)
